The values that follow come from patent US9271978B2 (Zenith Epigenetics Corp., priority 2012, dated 2016).

Parameters in all cases: key: Active: Compounds with an IC50 value less than 30 μM were deemed to be active.; Not Active: Compounds with an IC50 value less than 30 μM were deemed to be active
Assay [1] has as its system human AML MV-4-11 (CRL-9591) cells. Nature of the assay: Inhibition of cell proliferation in MV4-11 cells. The assay is classed as cell-based. The conditions noted are these: human AML MV-4-11 cells, 72 h; active = IC50 <30 μM. The method, boiled down: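 Exponentially growing MV-4-11 cells (5×10^4/well) were treated immediately with two-fold dilutions of compound from 30 μM to 0.2 μM, in triplicate, for 72 h at 37° C, 5% CO2. Viability was measured by MTS absorbance at 490 nm after 3–4 h. Proliferation relative to DMSO after blank correction gave IC50.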

For the next assay, the system named is hIL-17 mRNA. Nature of the assay: Inhibition of hIL-17 mRNA transcription in human peripheral blood mononuclear cells. In kind it is cell-based. The conditions noted are these: OKT3 antibody stimulation. How it is done: In this example, hIL-17 mRNA in human peripheral blood mononuclear cells was quantitated to measure the transcriptional inhibition of hIL-17 when treated with a compound of the invention.
Human peripheral blood mononuclear cells were plated (2.0×10^5 cells per well) in a 96-well plate in 45 μL OpTimizer T Cell expansion media containing 20 ng/ml IL-2 and penicillin/streptomycin. The cells were treated with the test compound (45 μL. at 2× concentration), and then the cells were incubated at 37° C. for 1 h before addition of 10× stock OKT3 antibody at 10 ug/ml in media. Cells were incubated at 37° C. for 3 h before the cells were harvested. At time of harvest, cells were centrifuged (800 rpm, 5 min). Spent media was removed and cell lysis solution (70 μL) was added the cells in each well and incubated for 5-10 min at room temperature, to allow for complete cell lysis and detachment. mRNA was then prepared using the “mRNA Catcher PLUS plate” (Invitrogen), according to the protocol supplied. After the last wash, as much wash buffer as possible was aspirated without allowing the wells to dry. Elution buffer (E3, 70 μL) was then added to each well. mRNA was then eluted by incubating the mRNA Catcher PLUS plate with Elution Buffer for 5 min at 68° C. and then immediately placing the plate on ice.
The eluted mRNA isolated was then used in a one-step quantitative real-time PCR reaction, using components of the Ultra Sense Kit together with Applied Biosystems primer-probe mixes. Real-time PCR data was analyzed, normalizing the Ct values for hIL-17 to an internal control, prior to determining the fold induction of each unknown sample, relative to the control.

Assay [2] concerns the target T1, second bromodomain of Brd2 (BRD2(2)) (Homo sapiens, UniProt P25440).
T1 construct: made in house; host or cells: E. coli BL21 (DE3)
Nature of the assay: Inhibition of tetra-acetylated histone H4 binding to Brd2 bromodomain 2 (TR-FRET). The settings on record: tetra-acetylated histone H4 peptide, active = IC50 <30 μM. The method, boiled down: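 N-terminally His-tagged bromodomains (200 nM), expressed in E. coli, were incubated with biotinylated tetra-acetylated histone H4 peptide (25-50 nM), Eu-cryptate streptavidin and XL665 anti-His antibody in HEPES pH 7.4 buffer with KF, 0.2% DMSO, 2 h at room temperature. Inhibition read as decreased 665/620 nm TR-FRET; IC50 from dose-response curves.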
On the technique in general: TR-FRET usually uses a lanthanide donor and a delayed reading to cut background.

In the next assay the test system is hMCP-1 mRNA. The assay can be described thus: Inhibition of hMCP-1 mRNA transcription in human peripheral blood mononuclear cells. The conditions noted are these: 3 h. In kind it is cell-based. On the procedure:
In this example, hMCP-1 mRNA in human peripheral blood mononuclear cells was quantitated to measure the transcriptional inhibition of hMCP-1 when treated with a compound of the present disclosure.
Human Peripheral Blood Mononuclear Cells were plated (1.0×10^5 cells per well) in a 96-well plate in 45 μL RPMI-1640 containing 10% FBS and penicillin/streptomycin. The cells were treated with the test compound (45 μL at 2× concentration), and then the cells were incubated at 37° C. for 3 h before the cells were harvested. At time of harvest, cells were transferred to V-bottom plates and centrifuged (800 rpm, 5 min). Spent media was removed and cell lysis solution (70 μL) was added the cells in each well and incubated for 5-10 min at room temperature, to allow for complete cell lysis and detachment. mRNA was then prepared using the “mRNA Catcher PLUS plate” (Invitrogen), according to the protocol supplied. After the last wash, as much wash buffer as possible was aspirated without allowing the wells to dry. Elution buffer (E3, 70 μL) was then added to each well. mRNA was then eluted by incubating the mRNA Catcher PLUS plate with Elution Buffer for 5 min at 68° C. and then immediately placing the plate on ice.
The eluted mRNA isolated was then used in a one-step quantitative real-time PCR reaction, using components of the Ultra Sense Kit together with Applied Biosystems primer-probe mixes. Real-time PCR data was analyzed, normalizing the Ct values for hMCP-1 to an internal control, prior to determining the fold induction of each unknown sample, relative to the control.

T1 sequence (P25440 344-453 limits assumed): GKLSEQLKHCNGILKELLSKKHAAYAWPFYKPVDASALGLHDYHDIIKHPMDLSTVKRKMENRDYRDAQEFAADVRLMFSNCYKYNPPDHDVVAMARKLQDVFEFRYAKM

For the molecule `Cc1noc(C)c1-c1cc(N)c(=O)n(Cc2ccsc2)c1` [Example 219, 3-amino-5-(3,5-dimethylisoxazol-4-yl)-1-(thiophen-3-ylmethyl)pyridin-2(1H)-one], the “Cell Proliferation activity (IC50 <30 μM)” value (from here on “Cell Proliferation activity”) in assay [1] is on record as “Active”. Further, in the assay with hIL-17 mRNA, the “IL-17 activity (IC50 < 30 μM)” value is given as “Active”.

For the molecule `Cc1noc(C)c1-c1cc(N)c(=O)n(Cc2ccc(F)cc2)c1` [Example 180, 3-amino-5-(3,5-dimethylisoxazol-4-yl)-1-(4-fluorobenzyl)pyridin-2(1H)-one], the “Cell Proliferation activity” value in assay [1] is “Active”. In addition, the “IL-17 activity (IC50 < 30 μM)” value in the assay on hIL-17 mRNA is listed as “Active”.

As for `Cc1noc(C)c1-c1cc(N)c(=O)n(Cc2ccc(Br)cc2)c1` [Example 241, 3-Amino-1-(4-bromobenzyl)-5-(3,5-dimethylisoxazol-4-yl)pyridin-2(1H)-one], the “Cell Proliferation activity” value in assay [1] was “Active”. In addition, the “IL-17 activity (IC50 < 30 μM)” value in the assay on hIL-17 mRNA is reported as “Active”.

In the case of `Cc1noc(C)c1-c1ccc(=O)n(Cc2ccccc2)c1` [Example 56, 1-Benzyl-5-(3,5-dimethylisoxazol-4-yl)pyridin-2(1H)-one], the “FRET activity (IC50 <30 μM) BRD2(2)” value in assay [2] was “Active”. In assay [1], the “Cell Proliferation activity” value is “Active”. Besides, in the assay with hMCP-1 mRNA, the “MCP-1 activity (IC50 < 30 μM)” value was “Active”.

In the case of `Cc1noc(C)c1-c1ccc(=O)n(Cc2ccc(Cl)cc2)c1` [Example 128, 1-(4-Chlorobenzyl)-5-(3,5-dimethylisoxazol-4-yl)pyridin-2(1H)-one], the “FRET activity (IC50 <30 μM) BRD2(2)” value in assay [2] was “Active”. The “Cell Proliferation activity” value in assay [1] is recorded as “Active”. The “IL-17 activity (IC50 < 30 μM)” value in the assay on hIL-17 mRNA was “Active”. Moreover, in the assay on hMCP-1 mRNA, the “MCP-1 activity (IC50 < 30 μM)” value is listed as “Active”.

Turning to `Cc1noc(C)c1-c1ccc(=O)n([C@H](C)c2ccccc2)c1` [Example 134, (R)-5-(3,5-Dimethylisoxazol-4-yl)-1-(1-phenylethyl)pyridin-2(1H)-one], the “FRET activity (IC50 <30 μM) BRD2(2)” value in assay [2] is “Active”. The “Cell Proliferation activity” value in assay [1] is “Active”. In the assay with hMCP-1 mRNA, the “MCP-1 activity (IC50 < 30 μM)” value was “Active”.

Regarding `Cc1noc(C)c1-c1cc(N)c(=O)n(Cc2ccccc2)c1` [Example 73, 3-Amino-1-benzyl-5-(3,5-dimethylisoxazol-4-yl)pyridin-2(1H)-one], in assay [2], the “FRET activity (IC50 <30 μM) BRD2(2)” value is listed as “Active”. In addition, in assay [1], the “Cell Proliferation activity” value is given as “Active”. The “MCP-1 activity (IC50 < 30 μM)” value in the assay on hMCP-1 mRNA is “Active”.
